The values below come from patent US12398121B2 (Nuvation Bio Inc., priority 2018, dated 2025).

pIC50, pKi: −log10 of the molar value. Like-named read-outs stand apart in the source and are kept apart here.

For one experiment, the target named is T1, AR in LNCaP cytosol (Homo sapiens, UniProt P10275, T878A).
T1 construct: endogenous in cells; host or cells: LNCaP cytosol
T1 sequence (P10275 1-920 T878A): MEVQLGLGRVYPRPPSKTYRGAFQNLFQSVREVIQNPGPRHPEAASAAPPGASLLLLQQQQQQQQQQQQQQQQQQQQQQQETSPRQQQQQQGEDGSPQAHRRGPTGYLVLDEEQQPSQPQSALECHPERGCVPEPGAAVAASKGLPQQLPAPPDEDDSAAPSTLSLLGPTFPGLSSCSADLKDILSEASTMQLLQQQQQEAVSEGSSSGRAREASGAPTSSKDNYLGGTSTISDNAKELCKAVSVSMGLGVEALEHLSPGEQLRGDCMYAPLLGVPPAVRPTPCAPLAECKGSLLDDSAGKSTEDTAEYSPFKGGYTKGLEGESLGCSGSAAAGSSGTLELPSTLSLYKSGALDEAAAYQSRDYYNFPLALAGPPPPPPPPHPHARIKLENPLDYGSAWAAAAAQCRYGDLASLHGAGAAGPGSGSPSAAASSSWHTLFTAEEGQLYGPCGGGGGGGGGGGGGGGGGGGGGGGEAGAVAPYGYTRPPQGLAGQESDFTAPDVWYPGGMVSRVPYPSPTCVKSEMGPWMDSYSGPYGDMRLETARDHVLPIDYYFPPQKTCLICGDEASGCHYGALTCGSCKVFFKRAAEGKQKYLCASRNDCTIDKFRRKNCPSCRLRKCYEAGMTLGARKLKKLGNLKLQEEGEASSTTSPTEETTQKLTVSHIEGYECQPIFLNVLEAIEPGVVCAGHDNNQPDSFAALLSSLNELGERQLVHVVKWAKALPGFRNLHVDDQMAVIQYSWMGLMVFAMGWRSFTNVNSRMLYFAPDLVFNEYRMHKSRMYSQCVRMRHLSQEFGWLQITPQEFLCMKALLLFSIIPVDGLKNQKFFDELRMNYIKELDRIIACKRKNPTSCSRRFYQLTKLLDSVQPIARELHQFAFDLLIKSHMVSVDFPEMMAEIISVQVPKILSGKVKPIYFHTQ
Put plainly: AR binding assay (3H-methyltrienolone displacement). The procedure:
(§1) The following methods are for evaluating the in vitro biology properties of the test articles. • a. RBC HotSpot Poly(ADP-ribose) Polymerases 1 (PARP1) and Poly(ADP-ribose) Polymerases 2 (PARP2) Assays: The assay principle is radioisotope-based filter binding assay where incorporation of radioisotope-labeled NAD^+ into the substrate captured on filter is detected after washout free NAD^+. Data were analyzed using Excel and GraphPad Prism software for IC50 curve fits. Each assay was conducted with PJ34 as a positive control. • i. PARP1 assay: Human recombinant PARP1 at a final concentration of 2.5 nM was combined with histone H4 (20 μM) and test articles at various concentrations in reaction buffer (50 mM Tris-HCL, pH 8.0, 50 mM NaCl, 10 mM MgCl2, 1 mM DTT, 1% DMSO, and 20 μg/mL activated DNA). The solution was inoculated for 20 min at room temperature and the reaction initiated by adding [adenylate-^32P]-Nicotinamide Adenine Dinucleotide, ^32P-NAD^+ at a final concentration of 10 μM. After incubation for 2 hour at room temperature, the reaction mixture was filtered and washed with 0.75% phosphoric acid for radioactivity detection. • ii. PARP2 assay: Human recombinant PARP2 at a final concentration of 2.5 nM was combined with histone H3 (20 μM) and test articles at various concentrations in reaction buffer (50 mM Tris-HCL, pH 8.0, 50 mM NaCl, 10 mM MgCl2, 1 mM DTT, 1% DMSO, and 20 μg/mL activated DNA). The solution was inoculated for 20 min at room temperature and the reaction was initiated by adding [adenylate-^32P]-Nicotinamide Adenine Dinucleotide, ^32P-NAD^+ at a final concentration of 10 μM. After incubation for 2 hour at room temperature, the reaction mixture was filtered and washed with 0.75% phosphoric acid for radioactivity detection. • b. AR binding assay: AR in LNCaP cytosol was used for determining the binding affinity of test articles and the reference compound—progesterone (Sigma, Cat: E2785, St. Louis, MO). IC50s were determined using 8 concentrations/compound. Cytosol was plated at 200 μg/well (100 μL) into a 96-well conical polypropylene plate (Agilent, Cat: 5042-1385, Santa Clara, CA) and mixed with 3 μL of test compound. After adding 100 μL of ^3H-methyltrienolone (PerkinElmer, Cat: NET590250UC, San Jose, CA), the plate was sealed and shaken at 300 rpm at 4° C. for 24 hours. Post incubation, 100 μL of radioligand adsorption buffer containing 10 mM Tris-HCl, pH 7.4; 1.5 mM EDTA; 1 mM DTT; 0.25% charcoal; 0.0025% dextran was added to individual well. Plate was shaken for 15 min at 4′C followed by centrifugation at 3000 rpm for 30 min at 4° C. 150 μL of supernatant was transferred into scint-tube (PerkinElmer, Cat: 6000192) and mixed with 2 mL of Ultima Gold Cocktail (PerkinElmer, Cat: 6013329). Radioactivity was counted using a TriCarb 2910 TR scintillation counter (PerkinElmer). Inhibition of the radioactivity by test articles were calculated using the equation below: % Inhibition=(1−(Assay well−Average_LC)/(Average_HC−Average_LC))×100%.
IC50 values were calculated and graphed using the model “log(inhibitor) vs. response—Variable slope” included in GraphPad Prism 5 (San Diego, CA). The Ki values were further calculated using the equation below where [L] was the radioligand concentration (1 nM) using in this study. Kd value was 0.332 nM. Ki=IC50/(1+[L]/Kd) c. AR transactivation: Human AR cloned into a CMV vector backbone was used for the transactivation study. HEK-293 cells were plated at 80,000 cells per well of a 24 well plate in DME+5% csFBS. Twenty four hours later, the cells were transfected using Lipofectamine (Invitrogen, Carlsbad, CA) with 0.25 μg GRE-LUC, 0.01 μg CMV-LUC (renilla luciferase) and 25 ng of the AR in OPTIMEM medium. The cells were treated 24 hrs after transfection with various ligands (10^−12 to 10^−5 M final concentrations) and luciferase assay were performed 48 hours after transfection. […]

The target of the next experiment is Human recombinant PARP2 (Homo sapiens, UniProt Q9UGN5). Put plainly: RBC HotSpot PARP2 radioisotope-based filter binding assay. The class given is biochemical. Here is the method: as §1
Chain of Human recombinant PARP2 (Q9UGN5 whole entry): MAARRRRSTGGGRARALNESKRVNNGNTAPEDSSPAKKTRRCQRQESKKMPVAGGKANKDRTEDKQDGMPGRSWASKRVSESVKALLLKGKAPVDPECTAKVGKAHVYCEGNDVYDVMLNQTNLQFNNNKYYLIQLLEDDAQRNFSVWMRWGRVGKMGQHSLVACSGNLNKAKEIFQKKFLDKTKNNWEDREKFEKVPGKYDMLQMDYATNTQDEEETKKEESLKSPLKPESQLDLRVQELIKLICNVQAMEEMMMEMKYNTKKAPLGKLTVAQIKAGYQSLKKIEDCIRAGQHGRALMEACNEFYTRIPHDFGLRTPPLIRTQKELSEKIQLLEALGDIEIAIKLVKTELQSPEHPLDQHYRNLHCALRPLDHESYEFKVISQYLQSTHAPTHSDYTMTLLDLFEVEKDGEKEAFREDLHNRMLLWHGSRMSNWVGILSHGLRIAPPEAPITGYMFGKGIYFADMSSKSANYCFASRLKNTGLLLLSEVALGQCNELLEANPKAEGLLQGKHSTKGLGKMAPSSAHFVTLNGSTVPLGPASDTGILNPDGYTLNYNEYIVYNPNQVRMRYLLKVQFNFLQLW
Setting [1] is: Ki=IC50/(1+[L]/Kd), [L] 1 nM, Kd 0.332 nM, read-out: AR Ki.
[2] abbreviates: 2.5 nM enzyme, histone H3, 10 μM 32P-NAD+, read-out: PARP2 IC50.

For `C[C@]12CCC(=O)C[C@@H]1CC[C@@H]1[C@@H]2CC[C@@]2(C)[C@H]1CC[C@@]2(O)C#CCN1CCN(C(=O)c2cc(Cc3n[nH]c(=O)c4ccccc34)ccc2F)CC1` [Compound 1.118, 4-(4-fluoro-3-(4-(3-((5S,8R,9S,10S,13S,14S,17S)-17-hydroxy-10,13-dimethyl-3-oxohexadecahydro-1H-cyclopenta[a]phenanthren-17-yl)prop-2-ynyl)piperazine-1-carbonyl)benzyl)phthalazin-1(2H)-one], the pKi (commonly the Ki on a negative log10 scale, so that one unit is a factor of ten) on AR in LNCaP cytosol (setting [1]) was less than 5.13. Further, the negative-log IC50 (pIC50) (commonly the negative decadic logarithm of the IC50, by convention in mol/L) at Human recombinant PARP2 (setting [2]) was 9.00.

`C[C@](O)(CS(=O)(=O)c1ccc(NCCCCCC(=O)N2CCN(C(=O)c3cc(Cc4n[nH]c(=O)c5ccccc45)ccc3F)CC2)cc1)C(=O)Nc1ccc(C#N)c(C(F)(F)F)c1` [Compound 1.68, (R)-N-(4-cyano-3-(trifluoromethyl)phenyl)-3-(4-(6-(4-(2-fluoro-5-((4-oxo-3,4-dihydrophthalazin-1-yl)methyl)benzoyl)piperazin-1-yl)-6-oxohexylamino)phenylsulfonyl)-2-hydroxy-2-methylpropanamide] showed a pKi at AR in LNCaP cytosol of 6.04. The pIC50 on Human recombinant PARP2 is 9.70.

For `C[C@]12CCC(=O)C[C@@H]1CC[C@@H]1[C@@H]2CC[C@@]2(C)[C@H]1CC[C@@]2(O)c1cn(CC(=O)N2CCN(C(=O)c3cc(Cc4n[nH]c(=O)c5ccccc45)ccc3F)CC2)nn1` [Compound 1.107, 4-(4-fluoro-3-(4-(2-(4-((5S,8R,9S,10S,13S,14S,17S)-17-hydroxy-10,13-dimethyl-3-oxohexadecahydro-1H-cyclopenta[a]phenanthren-17-yl)-1H-1,2,3-triazol-1-yl)acetyl)piperazine-1-carbonyl)benzyl)phthalazin-1(2H)-one], the pKi at AR in LNCaP cytosol (setting [1]) was less than 5.13. Moreover, the pIC50 at Human recombinant PARP2 (setting [2]) is 10.00.

Turning to `C[C@]12CCC(=O)C[C@@H]1CC[C@@H]1[C@@H]2CC[C@@]2(C)[C@H]1CC[C@@]2(O)C#CC(=O)N1CCN(C(=O)c2cc(Cc3n[nH]c(=O)c4ccccc34)ccc2F)CC1` [Compound 1.116, 4-(4-fluoro-3-(4-(3-((5S,8R,9S,10S,13S,14S,17S)-17-hydroxy-10,13-dimethyl-3-oxohexadecahydro-1H-cyclopenta[a]phenanthren-17-yl)propioloyl)piperazine-1-carbonyl)benzyl)phthalazin-1(2H)-one], the pKi at AR in LNCaP cytosol (setting [1]) was 5.30. For the same compound, the pIC50 on Human recombinant PARP2 (setting [2]) was 9.70.

In the case of `C[C@](O)(CS(=O)(=O)c1ccc(NCCN2CCN(C(=O)c3cc(Cc4n[nH]c(=O)c5ccccc45)ccc3F)CC2)cc1)C(=O)Nc1ccc(C#N)c(C(F)(F)F)c1` [Compound 1.99, (R)-N-(4-cyano-3-(trifluoromethyl)phenyl)-3-(4-(2-(4-(2-fluoro-5-((4-oxo-3,4-dihydrophthalazin-1-yl)methyl)benzoyl)piperazin-1-yl)ethylamino)phenylsulfonyl)-2-hydroxy-2-methylpropanamide], on AR in LNCaP cytosol, the pKi is 6.71. Further, the pIC50 on Human recombinant PARP2 was 9.70.

The compound `C[C@]12CCC(O)C[C@@H]1CC[C@@H]1[C@@H]2CC[C@]2(C)[C@@H](OCCCCCC(=O)N3CCN(C(=O)c4cc(Cc5n[nH]c(=O)c6ccccc56)ccc4F)CC3)CC[C@@H]12` (stereo partly drawn) [Compound 1.111, 4-(4-fluoro-3-(4-(6-((5S,8R,9S,10S,13S,14S,17S)-3-hydroxy-10,13-dimethylhexadecahydro-1H-cyclopenta[a]phenanthren-17-yloxy)hexanoyl)piperazine-1-carbonyl)benzyl)phthalazin-1(2H)-one] gave a negative logarithm of the Ki (pKi) at AR in LNCaP cytosol of 7.44. Besides, the pIC50 on Human recombinant PARP2 (setting [2]) was 9.70.

Regarding `C[C@]12CCC(=O)C[C@@H]1CC[C@@H]1[C@@H]2CC[C@]2(C)[C@@H](OCCCCCC(=O)N3CCN(C(=O)c4cc(Cc5n[nH]c(=O)c6ccccc56)ccc4F)CC3)CC[C@@H]12` [Compound 1.2, 4-(3-(4-(6-(((5S,8R,9S,10S,13S,14S,17S)-10,13-dimethyl-3-oxohexadecahydro-1H-cyclopenta[a]phenanthren-17-yl)oxy)hexanoyl)piperazine-1-carbonyl)-4-fluorobenzyl)phthalazin-1(2H)-one], at AR in LNCaP cytosol, the pKi was 8.88. The pIC50 on Human recombinant PARP2 (setting [2]) is 9.70.

For the compound `CC(O)(CS(=O)(=O)c1ccc(NCCn2cc(CN3CCN(C(=O)c4cc(Cc5n[nH]c(=O)c6ccccc56)ccc4F)CC3)nn2)cc1)C(=O)Nc1ccc(C#N)c(C(F)(F)F)c1` (stereo in doubt) [Compound 1.97, (S)-N-(4-cyano-3-(trifluoromethyl)phenyl)-3-(4-(2-(4-((4-(2-fluoro-5-((4-oxo-3,4-dihydrophthalazin-1-yl)methyl)benzoyl)piperazin-1-yl)methyl)-1H-1,2,3-triazol-1-yl)ethylamino)phenylsulfonyl)-2-hydroxy-2-methylpropanamide], the pKi on AR in LNCaP cytosol was 6.30. The pIC50 on Human recombinant PARP2 is 9.40.

For `C[C@]12CCC(F)(F)C[C@@H]1CC[C@@H]1[C@@H]2CC[C@]2(C)[C@@H](OCCCCCC(=O)N3CCN(C(=O)c4cc(Cc5n[nH]c(=O)c6ccccc56)ccc4F)CC3)CC[C@@H]12` [Compound 1.114, 4-(3-(4-(6-((5S,8R,9S,10S,13S,14S,17S)-3,3-difluoro-10,13-dimethylhexadecahydro-1H-cyclopenta[a]phenanthren-17-yloxy)hexanoyl)piperazine-1-carbonyl)-4-fluorobenzyl)phthalazin-1(2H)-one], the pKi on AR in LNCaP cytosol was 7.72. Besides, at Human recombinant PARP2 (setting [2]), the pIC50 was 8.72.
